Source: the supplement of paper PMC10307832

Assays:
Experiment in all cases: relative viability (nuclei count vs DMSO), 5 days (fraction); higher = more cells survive
Adavosertib + Pemetrexed = compound: C=CCn1c(=O)c2cnc(Nc3ccc(N4CCN(C)CC4)cc3)nc2n1-c1cccc(C(C)(C)O)n1 [Adavosertib] + Nc1nc2[nH]cc(CCc3ccc(C(=O)N[C@@H](CCC(=O)O)C(=O)O)cc3)c2c(=O)[nH]1 [Pemetrexed] (partner 0.2 µM)
Outline: (§1)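 Five library-drug doses in √10 steps were combined with a fixed anchor-drug dose, or a single drug was given alone, by pin tool to lung cancer cell lines in 1536-well plates the day after seeding. Nuclei were stained and counted after 5 days. Relative viability is the nuclei count in treated wells over that in vehicle wells, taken as the median of duplicate plates.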

Nelarabine + Decitabine = compound: COc1nc(N)nc2c1ncn2[C@@H]1O[C@H](CO)[C@@H](O)[C@@H]1O [Nelarabine] + Nc1ncn([C@H]2C[C@H](O)[C@@H](CO)O2)c(=O)n1 [Decitabine] (partner 2 µM)
Outline: as §1

Nelarabine + Alpelisib = compound: COc1nc(N)nc2c1ncn2[C@@H]1O[C@H](CO)[C@@H](O)[C@@H]1O [Nelarabine] + Cc1nc(NC(=O)N2CCC[C@H]2C(N)=O)sc1-c1ccnc(C(C)(C)C(F)(F)F)c1 [Alpelisib] (partner 2 µM)
Outline: as §1

[1] = compound: C=CCn1c(=O)c2cnc(Nc3ccc(N4CCN(C)CC4)cc3)nc2n1-c1cccc(C(C)(C)O)n1 [Adavosertib] + CC(=O)c1c(C)c2cnc(Nc3ccc(N4CCNCC4)cn3)nc2n(C2CCCC2)c1=O [Palbociclib] (partner 0.5 µM)
Outline: as §1

Cell Line | relative viability (Adavosertib + Pemetrexed; first compound 0.01 µM) | relative viability (Adavosertib + Pemetrexed; first compound 0.03162 µM) | relative viability (Adavosertib + Pemetrexed; first compound 0.1 µM) | relative viability (Adavosertib + Pemetrexed; first compound 0.3162 µM) | relative viability (Nelarabine + Decitabine; first compound 0.01 µM) | relative viability (Nelarabine + Decitabine; first compound 0.03162 µM) | relative viability (Nelarabine + Decitabine; first compound 0.1 µM) | relative viability (Nelarabine + Decitabine; first compound 0.3162 µM) | relative viability (Nelarabine + Decitabine; first compound 1 µM) | relative viability (Nelarabine + Alpelisib; first compound 0.01 µM) | relative viability (Nelarabine + Alpelisib; first compound 0.03162 µM) | relative viability (Nelarabine + Alpelisib; first compound 0.1 µM) | relative viability (Nelarabine + Alpelisib; first compound 0.3162 µM) | relative viability (Nelarabine + Alpelisib; first compound 1 µM) | relative viability ([1]; first compound 0.01 µM) | relative viability ([1]; first compound 0.03162 µM) | relative viability ([1]; first compound 0.1 µM) | relative viability ([1]; first compound 0.3162 µM)
BEN | 0.739 | 0.76 | 0.816 | 0.815 | 0.729 | 0.762 | 0.712 | 0.79 | 0.744 | 1.53 | 0.95 | 1.1 | 1.06 | 1.08 | 0.452 | 0.434 | 0.473 | 0.501
RERF-LC-KJ | 0.384 | 0.463 | 0.481 | 0.471 | 0.764 | 0.639 | 0.705 | 0.699 | 0.711 | 0.944 | 0.889 | 0.909 | 0.861 | 1.09 | 0.977 | 1.07 | 1.14 | 1.03
LU99A | 0.156 | 0.165 | 0.144 | 0.115 | 1.02 | 0.91 | 0.971 | 0.886 | 0.935 | 0.517 | 0.415 | 0.519 | 0.476 | 0.54 | 0.404 | 0.373 | 0.393 | 0.409
PC-14 | 0.151 | 0.121 | 0.115 | 0.0767 | 0.225 | 0.231 | 0.202 | 0.219 | 0.224 | 0.857 | 0.97 | 1.02 | 1.04 | 0.947 | 0.508 | 0.577 | 0.516 | 0.0749
NCI-H650 | 0.892 | 1.07 | 0.952 | 0.774 | 0.305 | 0.277 | 0.333 | 0.28 | 0.33 | 1.38 | 1.08 | 1 | 1.14 | 1.24 | 0.344 | 0.372 | 0.336 | 0.371
NCI-H1651 | 0.564 | 0.574 | 0.628 | 0.408 | 0.487 | 0.725 | 0.61 | 0.648 | 0.527 | 1.15 | 0.963 | 1.12 | 1.02 | 0.855 | 0.499 | 0.523 | 0.572 | 0.612
NCI-H2023 | 0.114 | 0.163 | 0.164 | 0.114 | 0.239 | 0.207 | 0.241 | 0.223 | 0.219 | 0.634 | 0.769 | 0.559 | 0.594 | 0.55 | 0.412 | 0.377 | 0.331 | 0.202
